Reference: patent publication US7524505B2, “Compositions and methods for dual therapies of hair graying and balding in follicular delivery systems” (Schweitzer Biotech Company Ltd., priority 2005, dated 2009)

Tested on: hair follicle organ
Assay: Hair follicle organ cultured in vitro, length of re-grown hair
Format: cell-based, mice (F1 generation of C3H mated with BALB/C)
Details: hair follicles cultured 12 days in the formula of amino acids and vitamins; length measured at Day 12; FIG. 7
Excerpt: At the age of 8 weeks, the F1 generation of C3H mated with BALB/C supplies the hair follicle material. By plucking the whiskers by depilating forceps, an anagen phase of the hair follicle can be induced. After three days of whisker plucking, the mice were killed and the hair follicle samples were harvested. Each selected hair follicle was then carefully isolated from the subcutaneous fat and the connective tissue surrounding the capsule was removed under a stereo-dissection microscope with fine forceps. We picked up the intact hair follicles with average size for the next step of culture, and which is in the early anagen stage, which is determined by the hair follicle conformation. Before culture, the hair fibre was first cut out at the surrounding line of the hair follicle to make the length measurement of hair growth much more easily in the future (FIG. 7). […]
Ten hair follicles were cultured in each treatment. […] The length of the hair growth beginning from the cutting site was measured at Day 12. […]
Hair follicle was observed by the Inverted microscope (Lieca DM, IL) and captured with the image by CCD connecting with a computer. The hair length was analyzed with the computer software: Northern Eclipse image system. The data of hair length were analyzed with the Duncan's new multiple range test by one way analysis of variance (ANOVA) using the SigmaStat program (2002).

HSCF-II: recombinant fusion of human SCF, linking peptide and IGF-I; 253 amino acids, SEQ ID NO:6
effect on hair re-growth (hair length): even better than each of SCF and IGF-I
